Results published in US12611423B2, “Medical use of tafoxiparin” (DILAFOR AB, priority 2022, dated 2026).

Columns and labels:
[1] = anticoagulant activity (descriptive)
[2] = tested on: factor Xa; assay: antifactor Xa activity of tafoxiparin; format: biochemical; conditions: definition of tafoxiparin
[3] = tested on: factor IIa; assay: antifactor IIa activity of tafoxiparin; format: biochemical; conditions: definition of tafoxiparin
Chain of factor IIa (P01008 33-464): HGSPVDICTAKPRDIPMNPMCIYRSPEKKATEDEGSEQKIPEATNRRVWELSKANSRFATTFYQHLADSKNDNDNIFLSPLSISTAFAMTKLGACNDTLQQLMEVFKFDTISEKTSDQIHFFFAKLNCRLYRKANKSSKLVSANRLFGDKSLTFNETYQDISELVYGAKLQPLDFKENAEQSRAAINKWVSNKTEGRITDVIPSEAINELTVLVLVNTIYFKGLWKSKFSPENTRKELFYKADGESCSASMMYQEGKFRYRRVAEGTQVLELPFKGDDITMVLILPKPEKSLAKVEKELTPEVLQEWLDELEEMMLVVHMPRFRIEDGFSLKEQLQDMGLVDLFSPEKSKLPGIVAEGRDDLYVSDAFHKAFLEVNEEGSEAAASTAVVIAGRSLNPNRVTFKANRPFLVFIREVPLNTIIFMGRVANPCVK

Chain of factor Xa (P01008 33-464 partner): as the sequence (P01008 33-464) above
Chain of factor Xa (P00742 235-488 limits assumed, further chain): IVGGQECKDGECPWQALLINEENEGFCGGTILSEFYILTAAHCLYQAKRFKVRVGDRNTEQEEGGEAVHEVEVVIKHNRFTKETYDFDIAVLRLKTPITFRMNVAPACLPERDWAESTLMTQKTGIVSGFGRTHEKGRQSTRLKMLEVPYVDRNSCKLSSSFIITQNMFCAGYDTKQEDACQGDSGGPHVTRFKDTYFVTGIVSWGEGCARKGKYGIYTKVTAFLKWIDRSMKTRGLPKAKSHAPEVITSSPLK

tafoxiparin
anticoagulant activity [1]: essentially no anticoagulant activity | antifactor Xa activity [2]: less than 10 IU/mg | antifactor Ila activity [3]: less than 10 IU/mg
